Assay results: patent US6159953A, “Anti-malarial composition and method of use” (Catholic University of America, priority 1992, dated 2000)
Like-named read-outs stand apart in the source and are kept apart here.

Key:
[1] = system: Plasmodium falciparum, Indochina clone W2; test: microbe, parasite or virus in culture; conditions: for IC50: Plasmodium falciparum
Experimental: In the antimalarial experiment with parasites, incorporation of radioactivity from [G-^3 H]-hypoxanthine into nucleic acids served as a measure of parasite proliferation. […] Each data point represents an average of two determinations. In the study of toxicity to human cells, proliferation of cells was determined directly by measuring the number of viable cells per well. […] Each data point represents an average of two determinations. 5-fluoro-orotate (.circle-solid.), 5-fluorouracil (.box-solid.), 5-fluorouridine (.tangle-solidup.), and 5-fluoro-2'-deoxyuridine (.diamond-solid.).
Half shaded symbols represent overlapping data points.
3. Effects of pyrimidine analogues alone or in combination with normal pyrimidine bases or nucleosides or with amino acid derivatives can be tested in malaria parasite-infected erythrocytes. Varying concentrations of pyrimidine analogues in culture medium are added to individual wells of microtitre plates [Desjardins, R. E. et al., Antimicrob. […] Parasitemic erythrocytes in culture medium are added to each well. […] As an alternative to adding a radioactive precursor of nucleic acid biosynthesis, the end point for determining the effects of added drugs can be the incorporation of a radioactive amino acid, e.g., [U-^14 C]-isoleucine, into parasite protein.
Fluoropyrimidines, dispersed in 25 μl of culture medium, were added to individual wells of a 96-well microtitre plate. […] Finally, the incorporation of 0.5 μCi of [G-^3 H]hypoxanthine (1 Ci/mmol) into nucleic acids in each well was determined; this served as a measure of parasite proliferation.

[2] = system: IMR-90 human lung fibroblast cells; test: Toxicity to cultured IMR-90 cells, number of viable cells; type: cell-based
From the text: 2. Effects of orotate analogues on cell viability and the ability to synthesize nucleic acids from radioactive precursors, and the rescuing effects of normal pyrimidine bases or nucleosides or amino acid derivatives such as histidinol, can be tested in human-derived tissue culture cell lines. Human HT-1080 human sarcoma cells [Rusheed, S., et al., Cancer, 33:1027-30 (1974)], human diploid IMR-90 cells [Nichols, W. W., et al., Science, 196:60-3 (1977)], human cervical […] HeLa S3 cells [Puck, T. T., et al., J. Exp. Med., 103:273-84 (1956)], HL-60 human myeloid leukemia cells [Collins, S. J., et al., Nature, 270:347-9 (1977)], and mouse leukemia L-1210 cells [Moore, G. E., J. Nat. […] The growth medium most suitable for each cell line can be determined by reference to the publications cited above: briefly, HT-1080 cells are maintained in Eagle's Minimal Essential Medium (EMEM) supplemented with 5% fetal bovine serum (FBS) and 2 mM L-glutamine; IMR-90 cells are grown in EMEM supplemented with 10% FBS, 10 mM Hepes buffer, 0.21% NaHCO3, and 2 mM L-glutamine. […]
Toxicity of pyrimidine analogues to cultured human cells is determined as follows. […] Thereafter, the number of cells in each well is determined. […] Cells that grow in suspension (e.g., HL-60 and L-1210 cells) are transferred to centrifuge tubes, pelleted at low speed, washed, and the viability determined as above. […]

In the case of `O=C(O)c1[nH]c(=O)[nH]c(=O)c1F` [5-fluoro-orotate], the “effect of uridine on cytotoxicity towards malarial parasites” value ([1]; Indochina clone W-2, 48 h, 1 mM uridine (FIG. 2)) is reported as “no effect”, the IC50 ([1]; W2) is reported as 6 ± 1.7 nM and the IC50 ([1]; W2, 48 h) is reported as 6 nM. For the same compound, the “times more active than chloroquine” value ([1]; multidrug-resistant Indochina clone) was 21 times, the IC50 ([2]; IMR-90, with 1 mM uridine, read-out: IC50 With 1 mM Uridine) was 2200 nM and the IC50 ([2]; IMR-90, without uridine, read-out: IC50 Without Uridine) was 1100 nM.
